Results taken from patent publication US20210322785A1, “COMPOSITIONS AND METHODS FOR TREATING WOUNDS” (C.P. MEDICAL CORPORATION, priority 2018, published 2021).

What was measured:
[1] = Drug elution from polymer into PBS at 37° C.; assay type: physicochemical; conditions: within the first three days; polymer prepared with Nolvasan, 2% chlorhexidine dose (50 mg); PBS 37° C.
Procedure: A Thermo Scientific GENESYS 10S UV-Vis spectrophotometer was used to quantify the release of various drugs from several polymers. First, the reference drug or drug solution was dissolved in an appropriate solvent. Typically, phosphate buffered saline (PBS), ethanol or dimethylsulfoxide (DMSO) were used as the solvent. Next, the optimal absorption peak for identifying and quantifying the drug was determined by performing a scan of the drug solution between 200 and 1000 nm. With the absorption peak selected, a reference curve was established by measuring the peak absorbance for various concentrations of the drug. […]
Elution samples were collected daily by decanting the PBS solution from the polymer. The volume of sample collected was recorded. […] The elution sample was analyzed by first diluting the sample in the appropriate solvent using analytical pipettes such that the measured absorbance was in the range determined by the reference curve. The dilution factor was recorded. The drug concentration was calculated from the measured absorbance via the reference curve and the dilution factor. The drug amount was calculated by multiplying the drug concentration with the sample volume. The percent elution for that day was calculated by dividing the drug amount by the total amount of drug administered. […]

[2] = Hydrogel surface spread test; assay type: physicochemical; set-up: key: 1: no spreading, tight drops that stay in place; 2: mild spreading, drops drip slowly down; 3: severe spreading, drops completely wet surface; conditions: drop from 22 gauge needle on 97.5% water hydrogel surface, incline about 30°
Procedure: To model the performance of the polymer solutions on a hydrophilic surface the extent of spreading and dripping of droplets on a high water content biocompatible hydrogel polymer matrix surface at an incline of about 30° was recorded. […] The solution was stirred with a spatula for 10 to 20 seconds and allowed to gel, which typically took 5 to 10 minutes. The water content of the resulting polymer was 97.5%.
The test was performed by first preparing the polymer solution in the usual fashion. After thorough mixing, the polymer solution was dispensed dropwise through a 22 gauge needle onto the biocompatible biocompatible hydrogel polymer matrix surface. The results are shown in Table 9B and were divided into three general categories: 1) no spreading, tight drops that stay in place; 2) mild spreading, drops drip slowly down; 3) severe spreading, drops completely wet surface. Water is in category 3.

chlorhexidine released from polymer [1]	hydrogel surface spread test category [2]	Molecule
Almost half	–	[H]/N=C(\N/C(=N/[H])NCCCCCCNC(=N)NC(=N)Nc1ccc(Cl)cc1)Nc1ccc(Cl)cc1 [chlorhexidine]
–	3	Water
